# In PubChem BioAssay (NCI):
# “And” between values parts separate entries of the source, which are not always exact repeats. Identical values can stand only once.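 Where inhibition never reached the appropriate level, the endpoint shown equals the highest concentration tested. Otherwise, values were interpolated linearly from a five-concentration, 48-hour dose response in 96-well plates. GI50 = concentration required for 50% inhibition of growth. TGI denotes the concentration required for complete inhibition of growth.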
# What was measured:
# Assay in all cases: inhibition of tumour cell growth, NCI panel, 48 h
# [1] = tested on: SK-MEL-28 melanoma
# [2] = tested on: SK-MEL-5 melanoma
# [3] = tested on: COLO 205 colon
# [4] = tested on: HCT-15 colon
# [5] = tested on: ACHN renal
# [6] = tested on: CAKI-1 renal
# [7] = tested on: HS 578T breast
# [8] = tested on: LOX IMVI melanoma
# [9] = tested on: HL-60(TB) leukemia
# [10] = tested on: SF-539 CNS
SMILES,GI50 [1],TGI [1],GI50 [2],TGI [2],GI50 [3],TGI [3],GI50 [4],TGI [4],GI50 [5],TGI [5],GI50 [6],TGI [6],GI50 [7],TGI [7],GI50 [8],TGI [8],GI50 [9],TGI [9],GI50 [10],TGI [10]
CCN1CCN(c2cc(C)c3cc(NC(=O)c4ccc(OC)c(OC)c4)ccc3n2)CC1,19.9 µM,> 59.7 µM,1.17 µM,> 42.3 µM,3.23 µM,> 37.6 µM,3.02 µM,> 100 µM,> 34.4 µM,> 100 µM,> 44.6 µM,> 100 µM,8.55 µM,> 74.1 µM,9.36 µM,24.3 µM,4.19 µM,> 44.8 µM,5.44 µM,> 44.8 µM
CCCC(=O)Nc1cn(COC)c(C(=O)N2C[C@@H]3C[C@]34C2=CC(=O)c2[nH]cc(C)c24)n1,,50 µM and 32.2 µM,3.28 µM,12.8 µM and 11.8 µM,6.31 µM,16.6 µM and 23.7 µM,,50 µM and 38.9 µM,2.16 µM,50 µM and 6.82 µM,4.65 µM,12.1 µM and 16.2 µM,12.2 µM,44.6 µM and 41.2 µM,,21.9 µM and 53.8 µM,,4.9 µM,4.27 µM,50 µM and 15.8 µM
COc1cc(N=Nc2ccc(O)c3ncccc23)c2ncccc2c1,4.06 µM,> 100 µM,2.09 µM,13.3 µM,5.65 µM,> 100 µM,0.923 µM,> 100 µM,2.3 µM,14.2 µM,1.83 µM,> 100 µM,4.67 µM,> 100 µM,2.13 µM,> 100 µM,2.47 µM,9.16 µM,2.95 µM,14 µM
C=CCC1(c2ccc(OC)cc2)C=CC(=O)CC1 (stereo unspecified),,> 100 µM,,> 100 µM,,> 100 µM,,> 100 µM,,> 100 µM,,> 100 µM,,> 100 µM,,> 100 µM,,> 100 µM,,> 100 µM
NC(N)=N/N=C/c1c(Cl)cccc1Cl,17.6 µM,34.6 µM,14.6 µM,27.7 µM,17.2 µM,32.1 µM,26.1 µM,> 100 µM,25.4 µM,> 100 µM,23 µM,95.3 µM,18 µM,78 µM,14.4 µM,30.1 µM,21.8 µM,50.9 µM,23.7 µM,> 100 µM
CCC[CH2][Sn]([CH2]CCC)([O]C(=O)c1ccc(OC)c(OC)c1OC)[O][Sn]([CH2]CCC)([CH2]CCC)[O]C(=O)c1ccc(OC)c(OC)c1OC,0.25 µM,0.723 µM,0.604 µM,1.81 µM,0.27 µM,0.917 µM,0.175 µM,0.526 µM,0.259 µM,0.583 µM,0.0961 µM,0.506 µM,0.282 µM,1.81 µM,0.134 µM,0.292 µM,0.112 µM,0.554 µM,0.36 µM,0.94 µM
Cc1c(N(C)C)ccc2c(=O)c3cccc(CC(=O)O)c3oc12,,> 100 µM,,> 100 µM,,> 100 µM,,> 100 µM,,> 100 µM,,> 100 µM,,> 100 µM,,> 100 µM,,> 100 µM,,> 100 µM
